Test results as given in US7879861B2, “Combi-molecules having EGFR and DNA targeting properties” (priority 2005, dated 2011).
Values joined by “and” are separate entries in the source; they are usually repeats but may differ in a detail not shown here. Equal entries are not always repeated. Where two headings read alike, the source gives them in different places.

What was measured:
[1] = molecular target: T1, erbB2 (Homo sapiens, UniProt P04626); assay: Heregulin-induced autophosphorylation in MDA-MB-453 cells (Western blot); type: cell-based; details: 2 h preincubation, heregulin 10 min
T1 construct: heregulin-induced autophosphorylation in MDA-MB-453 cells; endogenous in cells; host or cells: MDA-MB-453 (ATCC)
Procedure: (§1) Autophosphorylation assay: Inhibition of receptor autophosphorylation in viable cells was determined by anti-phosphotyrosine Western blots as previously described (19). […] Equal amounts of cell lysates were analyzed by Western blot using anti-phosphotyrosine antibodies. Membranes were stripped of anti-phosphotyrosine and reprobed with anti-EGFR or anti-erbB2 antibodies (NeoMarkers, Fremont, Calif.). To study whether an inhibition is reversible or not, duplicate sets of cells were treated with 2 μM of designated compound for 2 h. One set of cells was then stimulated with EGF. The other set of cells was washed free of the compound with warmed serum-free media, incubated for 2 h, washed again, incubated for another 2 h, and incubated for a further 4 h after a subsequent wash. This set of cells was then stimulated with EGF. Western blot was performed as previously described. […] The membrane was incubated with anti-phosphorylated MAPK (Erk1,2) or anti-Erk 1,2 antibodies (Cell Signaling Technology Inc., Beverly, Mass.).

[2] = system: NIH3T3HER14 cells; assay: Growth factor-stimulated proliferation, SRB assay; type: cell-based, mouse; details: 72 h
Procedure: (§2) In vitro growth inhibition assay: To study the effect of the compounds on growth factor stimulated-proliferation, cells were grown to 70% of confluence in 48-well plates. They were subsequently washed twice with PBS, incubated in serum-free medium for 18 h and exposed to each drug+growth factors (EGF, TGFα, PDGF or serum) for 72 h. Cell growth was measured using the sulforhodamine B (SRB) assay (24). Briefly, following drug treatment, cells were fixed using 50 μl of cold trichloroacetic acid (50%) for 60 min at 4° C., washed five times with tap water, and stained for 30 min at room temperature with SRB (0.4%) and dissolved in acetic acid (0.5%). The plates were rinsed five times with 1% acetic acid and allowed to air dry. The resulting colored residue was dissolved in 200 μl of Tris base (10 mM), and the optical density read for each well at 450 nm using a Bio-Rad microplate reader (model 2550). […] Cell growth was measured using SRB assay as described previously.

[3] = system: MDA-MB-468 cells; assay: Reversibility of antiproliferative effect, SRB assay; type: cell-based, human
Procedure: as §2, with “They were subsequently washed twice with PBS, incubated in serum-free medium for 18 h and exposed to each drug+growth factors (EGF, TGFα, PDGF or serum) for 72 h.” left out

[4] = system: MAPK (Erk1, 2); assay: EGF-stimulated MAPK phosphorylation in MDA-MB-468 cells (Western blot); type: cell-based, human; details: at concentrations as low as 1 μM
Procedure: as §1

[5] = system: MAPK (Erk1, 2); assay: Heregulin-stimulated MAPK phosphorylation in MDA-MB-453 cells (Western blot); type: cell-based, human
Procedure: as §1

[6] = system: DNA of MDA-MB-468 cells; assay: Alkaline comet assay for DNA damage; type: cell-based, human; details: 2 h drug exposure
Procedure: Alkaline Comet Assay for quantization of DNA damage: The alkaline comet assay was performed as described in previously published procedures (19, 20). The cells were exposed to drugs for 2 h, harvested with trypsin-EDTA and re-suspended in PBS. Cell suspensions were diluted to approximately 10^6 cells, and mixed with agarose (1%) in PBS at 37° C. in a 1:10 dilution. The gels were cast on Gelbond strips (Mandel Scientific, Canada) using gel casting chambers and then immediately placed into a lysis buffer [2.5 M NaCl, 0.1 M tetra-sodium EDTA, 10 mM Tris-base and 1% (v/v) Triton X-100, pH 10.0]. After being kept on ice for 30 min, the gels were gently rinsed with distilled water and immersed in a second lysis buffer (2.5 M NaCl, 0.1 M tetrasodium EDTA, 10 mM Tris-base) containing 1 mg/ml proteinase K for 60 min at 37° C. Thereafter, the gels were rinsed with distilled water, incubated in alkaline electrophoresis buffer for 30 min at 37° C., and electrophoresed at 19 V for 20 min. […] Comets were visualized at 330× magnification and DNA damage was quantitated using the Tail Moment parameter (i.e., the distance between the barycenter of the head and the tail of the comet multiplied by the percentage of DNA within the tail of the comet). A minimum of 50 cell/comets were analyzed for each sample, using ALKOMET version 3.1 image analysis software.

[7] = system: MDA-MB-468 cells; assay: Annexin V binding (apoptosis), flow cytometry; type: cell-based, human
Procedure: Annexin V Binding: Cells were grown in 6-well plates until confluence and then incubated with the compounds for 24 h, 48 and 72 h. The cells were then harvested, washed twice with PBS, and centrifuged. Cells (10^5) were treated with annexin V-FITC and propidium iodide (PI) using the Apoptosis Detection Kit (BD Bioscience Pharmingen, USA) and the supplier's protocol. Annexin V-FITC and PI binding were analyzed by flow cytometry. Data were collected using logarithmic amplification of both the FL1 (FITC) and FL2 (PI) channels. Quadrant analysis of co-ordinate dot plots was performed with CellQuest software. Unstained cells were used to adjust the photomultiplier voltage and for compensation setting adjustment in order to eliminate spectral overlap between the FL1 and FL2 signals.

[8] = Water solubility; type: physicochemical
[9] = Chemical stability of combi-molecules; type: physicochemical
[10] = molecular target: EGFR (Homo sapiens, UniProt P00533); assay: Reversibility of EGFR autophosphorylation inhibition in MDA-MB-468 cells (washout, 8 h); type: cell-based; design: EGF-induced EGFR autophosphorylation in MDA-MB-468 cells; endogenous in cells; host or cells: MDA-MB-468 (ATCC)
Chain of EGFR (P00533 25-1210): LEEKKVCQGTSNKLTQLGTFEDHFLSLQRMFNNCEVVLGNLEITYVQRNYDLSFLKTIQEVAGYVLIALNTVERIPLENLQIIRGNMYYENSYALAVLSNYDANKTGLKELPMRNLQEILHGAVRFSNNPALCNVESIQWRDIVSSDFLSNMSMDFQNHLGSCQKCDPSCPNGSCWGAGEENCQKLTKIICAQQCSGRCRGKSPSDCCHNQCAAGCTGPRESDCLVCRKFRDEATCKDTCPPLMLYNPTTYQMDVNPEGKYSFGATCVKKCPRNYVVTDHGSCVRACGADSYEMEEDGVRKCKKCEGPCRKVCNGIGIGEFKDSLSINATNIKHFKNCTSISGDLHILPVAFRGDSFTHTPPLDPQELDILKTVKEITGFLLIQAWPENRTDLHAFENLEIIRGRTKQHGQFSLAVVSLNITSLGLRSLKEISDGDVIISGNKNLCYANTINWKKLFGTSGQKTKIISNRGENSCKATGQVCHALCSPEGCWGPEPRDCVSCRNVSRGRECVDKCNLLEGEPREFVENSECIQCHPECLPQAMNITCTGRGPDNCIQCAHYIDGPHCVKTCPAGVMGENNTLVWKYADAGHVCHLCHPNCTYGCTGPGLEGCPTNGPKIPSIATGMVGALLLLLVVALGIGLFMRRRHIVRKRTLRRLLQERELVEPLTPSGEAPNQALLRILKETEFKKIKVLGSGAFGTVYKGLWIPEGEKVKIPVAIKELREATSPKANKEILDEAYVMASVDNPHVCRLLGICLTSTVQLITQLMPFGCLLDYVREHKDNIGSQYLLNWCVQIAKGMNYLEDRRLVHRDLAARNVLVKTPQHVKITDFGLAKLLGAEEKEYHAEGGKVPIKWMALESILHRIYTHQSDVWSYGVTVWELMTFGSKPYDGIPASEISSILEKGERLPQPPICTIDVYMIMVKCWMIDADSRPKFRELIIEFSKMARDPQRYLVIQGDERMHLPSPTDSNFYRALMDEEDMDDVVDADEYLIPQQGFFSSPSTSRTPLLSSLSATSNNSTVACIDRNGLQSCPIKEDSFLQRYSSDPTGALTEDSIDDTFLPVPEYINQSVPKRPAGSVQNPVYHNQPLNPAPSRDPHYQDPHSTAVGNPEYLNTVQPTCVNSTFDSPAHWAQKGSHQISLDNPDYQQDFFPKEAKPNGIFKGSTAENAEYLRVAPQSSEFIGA
Procedure: To test this hypothesis, the reversibility assay described by Fry et al. (13) and Smaill et al. (14) was used, according to which the cells are treated with inhibitors (2 μM) for 2 h and then washed free of drug. After 8 h, EGF was added; after a 10-min incubation the cells were lysed, and the degree of EGFR autophosphorylation measured.

T1 sequence (P04626 23-1255): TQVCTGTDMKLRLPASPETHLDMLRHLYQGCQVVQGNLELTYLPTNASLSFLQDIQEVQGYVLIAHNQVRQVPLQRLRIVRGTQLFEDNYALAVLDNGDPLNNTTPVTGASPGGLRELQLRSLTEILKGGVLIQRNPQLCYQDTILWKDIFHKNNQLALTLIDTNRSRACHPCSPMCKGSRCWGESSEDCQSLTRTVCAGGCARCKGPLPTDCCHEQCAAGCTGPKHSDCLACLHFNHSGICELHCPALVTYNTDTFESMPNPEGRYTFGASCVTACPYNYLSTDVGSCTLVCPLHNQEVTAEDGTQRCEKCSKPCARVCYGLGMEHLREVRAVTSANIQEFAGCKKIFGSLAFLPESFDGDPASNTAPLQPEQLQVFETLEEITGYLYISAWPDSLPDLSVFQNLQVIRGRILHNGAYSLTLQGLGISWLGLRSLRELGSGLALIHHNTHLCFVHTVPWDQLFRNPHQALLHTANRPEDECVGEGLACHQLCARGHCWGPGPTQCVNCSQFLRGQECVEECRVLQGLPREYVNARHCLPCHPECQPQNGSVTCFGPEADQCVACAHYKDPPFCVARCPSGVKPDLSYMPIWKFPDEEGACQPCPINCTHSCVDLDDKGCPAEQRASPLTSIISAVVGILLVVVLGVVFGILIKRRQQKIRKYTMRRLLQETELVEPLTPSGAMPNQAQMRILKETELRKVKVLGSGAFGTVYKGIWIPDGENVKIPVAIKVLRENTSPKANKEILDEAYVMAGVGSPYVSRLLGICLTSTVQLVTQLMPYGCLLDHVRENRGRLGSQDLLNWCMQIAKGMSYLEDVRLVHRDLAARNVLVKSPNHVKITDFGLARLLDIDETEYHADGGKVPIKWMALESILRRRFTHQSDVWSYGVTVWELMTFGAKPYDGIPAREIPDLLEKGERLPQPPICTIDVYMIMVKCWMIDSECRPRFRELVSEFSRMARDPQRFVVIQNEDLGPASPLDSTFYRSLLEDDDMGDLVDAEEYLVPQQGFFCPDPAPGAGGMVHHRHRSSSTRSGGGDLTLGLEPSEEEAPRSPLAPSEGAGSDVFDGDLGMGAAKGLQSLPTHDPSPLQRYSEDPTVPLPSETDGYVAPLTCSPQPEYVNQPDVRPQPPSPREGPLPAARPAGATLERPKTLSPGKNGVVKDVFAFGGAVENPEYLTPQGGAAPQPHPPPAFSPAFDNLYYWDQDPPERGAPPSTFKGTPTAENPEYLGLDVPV

ClCCNc1ccc2ncnc(Nc3cccc(Br)c3)c2c1 [ZR2002]
IC50 [1]: ~230 nM and 236 nM | EGF or TGFα-induced proliferation [2]: selectively blocking | inhibition at 1 µM ([2]; Mus musculus, at 1 μM, read-out: inhibition of PDGF-stimulated growth): 100% | inhibition at 10 µM ([2]; Mus musculus, at concentrations >10 μM, read-out: inhibition of serum-stimulated growth): 100% | inhibition at 0.1 µM ([2]; Mus musculus, at concentrations as low at 0.1 μM, read-out: inhibition of EGF-stimulated growth): 100% | IC50 ([3]; Homo sapiens, MDA-MB-468, 120 h, read-out: IC50, growth inhibition, 120 h continuous exposure, MDA-MB-468, SRB): 360 nM | IC50 ([3]; Homo sapiens, MDA-MB-468, read-out: IC50, growth inhibition, 2 h exposure followed by 120 h recovery, MDA-MB-468, SRB): 7400 nM | IC50 ([3]; read-out: IC50, growth inhibition, 2 h exposure followed by 120 h recovery, MDA-MB-468, SRB): 5160 nM | IC50 ([3]; read-out: IC50, growth inhibition, 120 h continuous exposure, MDA-MB-468, SRB): 234 nM | inhibition of EGF-stimulated phosphorylation of MAPK [4]: 100% | heregulin-stimulated MAPK phosphorylation [5]: blocked heregulin-stimulated MAPK phosphorylation | DNA damage (tail moment), in words [6]: damages DNA in a dose dependent manner | concentration inducing significant DNA damage [6]: 10 µM | concentration at which detectable levels of apoptosis start [7]: 5 µM | water solubility (in words) [8]: reduced water solubility | chemical stability (in words) [9]: stable compound that does not self-alkylate | mode of EGFR inhibition (reversible / irreversible) [10]: irreversible inhibitor of EGFR | EGF-dependent EGFR autophosphorylation immediately after drug exposure ([10]; 2 μM, 2 h): completely suppressed
